The values that follow come from patent US20050059744A1, “Methods and compositions for the treatment of pain and other alpha 2 adrenergic-mediated conditions” (Allergan, Inc., priority 2003, published 2005).

Like-named read-outs stand apart in the source and are kept apart here.

Data set [1] concerns intraocular pressure of rabbit eyes. The experiment in a line: Normotensive intraocular pressure in rabbit eyes after topical instillation (pneumatonometer). The data set is classed as in vivo, New Zealand rabbits. On the procedure:
Male New Zealand rabbits are used to evaluate drug effects on normotensive IOP measurements. The rabbits are carefully handled so as to minimize excitement. They should be picked up by the nape of the neck, with their hindlegs supported by the other hand. After removing the rabbit from its cage, approximately 25 ul of dilute Ophthetic® (0.05%) topical anesthesia is administered to each eye. An initial IOP determination is made in both eyes. Rabbits with 3 mmHg or greater difference in IOP between right and left eyes are replaced at this time.
Immediately following the time zero (T=0) reading in both eyes, one eye of each experimental rabbit is instilled with an ophthalmic formulation of 0.1% (w/w) brimonidine tartrate onto the cornea of the randomly selected test eye. […] The other eye is given the vehicle containing no drug. The ophthalmic formulations comprise 50 ppm Purite® (stabilized chlorine dioxide), 0.5% carboxymethylcellulose, 0.6% (w/w) borate buffer (pH 7.7) and small amounts of salts (NaCl, KCl, CaCl2, MgCl2). Intraocular pressure of both treated (ipsalateral)and untreated (contralateral) eyes is measured at the indicated time intervals for seven hours. Pressure readings utilize a Model 30 Classic™ Pneumatonometer as the measuring and recording instrument. It measures intraocular pressure (IOP) non-invasively through applanation tonometry.

Data set [2] has as its system sulprostone-induced allodynia in mice. As to the kind of experiment: Sulprostone-induced allodynia mouse model, paint brush pain score. Format: in vivo. As for the experimental part: Alternatively, allodynia can be induced in mice through intrathecal treatment of the animals with 200 ng sulprostone (prostaglandin E2 receptor agonist) in 50% DMSO and in a volume of 5 μl. In this model, the pain response to stroking the flank with a paint brush is scored 8 times over a 35 minute period starting 15 minutes following spinal administration of sulprostone. Minami et al., 57 Pain 217-223 (1994).
The compounds are formulated in approximately 0.01-5% DMSO and given in a volume of 1 ml/kg body weight for systemic dosing or 5 μl in saline for intrathecal dosing. Clonidine is tested at intrathecal doses ranging between 0.01 and 10.0 μg.
Amitriptylene is dissolved in 50% DMSO at the indicated doses and injected in a volume of 5 ul intrathecally into each mouse, in conjunction with either a 30 ug/kg IP injection of 5-methylurapadil or with a similar injection of saline.
Experimental procedure is the same as in Example 1, except both clonidine (various doses) and 5-methylurapidil (1 microgram intrathecal) are coadministered by intrathecal injection in a 50% DMSO vehicle and in a total volume of 5 microliters.

The subject of data set [3] is Chung model of allodynic rats. The source says:
A model for chronic pain (in particular peripheral neuropathy) involves the surgical ligation of the L5 (and optionally the L6) spinal nerves on one side in experimental animals. Rats recovering from the surgery gain weight and display a level of general activity similar to that of normal rats. However, these rats develop abnormalities of the foot, wherein the hindpaw is moderately everted and the toes are held together. More importantly, the hindpaw on the side affected by the surgery appears to become sensitive to pain from low-threshold mechanical stimuli, such as that producing a faint sensation of touch in a human, within about 1 week following surgery. This sensitivity to normally non-painful touch is called “tactile allodynia” and lasts for at least two months. The response includes lifting the affected hindpaw to escape from the stimulus, licking the paw and holding it in the air for many seconds. None of these responses is normally seen in the control group.
Rats are anesthetized before surgery. The surgical site is shaved and prepared either with betadine or novacaine. Incision is made from the thoracic vertebra X111 down toward the sacrum. Muscle tissue is separated from the spinal vertebra (left side) at the L4-S2 levels. The L6 vertebra is located and the transverse process is carefully removed with a small rongeur to expose the L4-L6 spinal nerves. The L5 and L6 spinal nerves are isolated and tightly ligated with 6-0 silk thread. The same procedure is done on the right side as a control, except no ligation of the spinal nerves is performed.
A complete hemostasis is confirmed, then the wounds are sutured. A small amount of antibiotic ointment is applied to the incised area, and the rat is transferred to the recovery plastic cage under a regulated heat-temperature lamp. […]
In the Chung rat model, tactile allodynia is measured prior to and 30 minutes after drug administration using von Frey hairs that are a series of fine hairs with incremental differences in stiffness. […]

Data set [4] relates to male Sprague-Dawley rats. The following applies: graded 30 minutes after administration. On the procedure: (§1) To test sedation, six male Sprague-Dawley rats are given various doses of a clonidine intrathecal injection. Sedation is graded 30 minutes following administration of the drug by monitoring locomotor skills as follows. Rats are placed in a dark covered chamber and a digicom analyzer (Omnitech Electronic) quantitates their exploratory behavior for a five-minute period. The machine records each time the rat interrupts an array of 32 photoelectric beams in the X and Y orientation, and quantifies the difference in behavior as compared to control animals given saline instead of clonidine.

The test system of data set [5] is sedation. As to the kind of experiment: Clonidine sedative activity dose response with or without 5-methylurapadil (FIG. 2). The note with it: co-administration of 5-methyl urapidil 30 μg/kg intraperitoneal vs clonidine alone. On the procedure:
as §1

Setting [6] is: 0.1% brimonidine and 0.003% prazosin, FIG. 4D.
Where [7] appears, read: 35 microliters 0.003% prazosin instilled, FIG. 4A.

Turning to `Brc1c(NC2=NCCN2)ccc2nccnc12` [brimonidine], the “lowering of intraocular pressure” value in data set [1] (0.1% brimonidine alone, after the first 30 minutes, FIG. 4B) was roughly 30%. Also, in data set [1] (0.1% brimonidine alone, within the first 30 minutes, FIG. 4B), the “initial change in intraocular pressure” value is “pronounced increase”. Also, in data set [1] (setting [6]), the “initial change in intraocular pressure” value is on record as “only a very small increase” and the “peak IOP lowering” value is on record as “approximately 40%”. Further, the “difference in intraocular pressure response vs brimonidine alone” value in data set [1] (co-installation of 0.1% brimonidine and 0.001% prazosin, FIG. 4C) is “Little difference”.

Turning to `CN(C)CCC=C1c2ccccc2CCc2ccccc21` [Amitriptylene, amitriptylene], in data set [2] (amitriptylene intrathecal with 30 ug/kg IP 5-methylurapadil vs with saline), the “reduction in the dosage necessary to achieve maximal analgesia” value is on record as “approximately three”.

`Clc1cccc(Cl)c1N=C1NCCN1` [clonidine]: the analgesia entry in data set [3] (intrathecal dose of 0.1 μg, allodynic rats) is reported as “no analgesia”; in data set [3] (intrathecal dose of 1.0 μg, allodynic rats), “maximal analgesia”; in data set [3] (rats, dose-dependence statement) it was “analgesic”; in data set [2] (clonidine 0.1 microgram intrathecal in the absence of prazosin), “not analgesic”; in data set [2] (mice, dose-dependence statement), “analgesic”. For the same molecule, the sedation result was “mildly sedating” in data set [4] (intrathecal dose of 3.0 μg) and “maximal sedation” in data set [4] (intrathecal dose of 10 μg). Moreover, in data set [2] (5-methyl urapidil 30 μg/kg intraperitoneal 5 minutes before clonidine), the “shift of the effective analgesic dose lower vs clonidine alone” value came out at 10 fold. Further, the “analgesic results compared with intraperitoneal injection of the alpha 1 antagonist” value in data set [2] (clonidine (various doses) and 5-methylurapidil 1 microgram coadministered intrathecally) is “substantially similar”. Moreover, the “decrease in the EC50 for clonidine vs i.t. clonidine alone” value in data set [2] (coadministration of prazosin 100 ng/kg intraperitoneal) is listed as “four”. Moreover, the sedating dose entry in data set [5] was “unchanged”.

As for `COc1cc2nc(N3CCN(C(=O)c4ccco4)CC3)nc(N)c2cc1OC` [prazosin], in data set [1] (setting [7]), the “intraocular pressure compared to the untreated eye” value is listed as “small initial drop” and the “return to baseline pressure” value worked out at 2 h.
